From publication PMC12040169 (PLOS Biology, 2025) come the findings set out here.

The nature of the series: in vitro. To be noted: human, hela cells, % viability.

The structures appear in SMILES notation.

For orientation: viability means a read-out of living cells in per cent, often relative to untreated cells.

`CN1CCC[C@H]1C(=O)Nc1ccc2ncccc2c1` [CBK159825]: the viability at 28.5 h, 10 µM amounted to 95.7%.

Consider `O=C(N[C@H]1CCN2C(=O)c3cc(-c4ccsc4)ccc3NC(=O)[C@H]12)c1cccc(F)c1` [CBK289339], for which the viability at 28.5 h, 10 µM is 92.6%.

Regarding `N#Cc1cccnc1N1CC(C(=O)O)C2(CCC2)C1` (stereo not shown) [CBK304415], the viability at 28.5 h, 10 µM amounted to 93.7%.

Regarding `CC(=O)ON=C1c2cc(S(=O)(=O)N(C)C)ccc2-c2ccc(S(=O)(=O)N(C)C)cc21` [CBK262807], the viability at 28.5 h, 10 µM worked out at 87.1%.

As to `CN(Cc1cccc(C#N)c1)Cc1nc2c(cnn2C)c(=O)[nH]1` [CBK305973], the viability at 28.5 h, 10 µM came to 109%.

`CCN1C(=O)C2(CC(=O)N(Cc3ccc(OC)c(OC)c3)C2=O)c2cc(C)ccc21` (stereo not shown) [CBK075172]: the viability at 28.5 h, 10 µM is 85.4%.

Consider `O=C(Nc1nc(-c2cc3ccccc3o2)cs1)c1ccc(F)cc1` [CBK287756], for which the viability at 28.5 h, 10 µM turned out to be 114%.

Consider `Cc1ccc(N(CC(=O)N/N=C/c2ccc(Cl)cc2)S(=O)(=O)c2ccccc2)cc1` [CBK262182], for which the viability at 28.5 h, 10 µM is 98.3%.

For the compound `CC(CN(C)C)C(=O)c1ccsc1` (stereo not shown) [CBK025906], the viability at 28.5 h, 10 µM is 93%.

Turning to `Nc1nc2cccnc2cc1-c1ccc2c(c1)OCCCO2` [CBK081201], the viability at 28.5 h, 10 µM was 97.7%.

In the case of `COc1ccc(Cc2n[nH]c(=O)n2-c2ccccc2)cc1` [CBK000112], the viability at 28.5 h, 10 µM was determined as 107%.

Regarding `COc1ccc(CN2CCN(S(C)(=O)=O)CC2)c(OC)c1OC` [CBK074491], the viability at 28.5 h, 10 µM was 102%.

As to `CC1CCN(Cc2nc3c(c(=O)n(C)c(=O)n3C)n2CCN2CCOCC2)CC1` [CBK269291], the viability at 28.5 h, 10 µM turned out to be 108%.

As to `O=c1[nH]c(=O)n(Cc2cccnc2)c2nc[nH]c12` [CBK291260], the viability at 28.5 h, 10 µM came to 111%.

Take `Cc1cc(C)n2c(SCC(=O)c3ccccc3)nnc2n1` [CBK265378]: the viability at 28.5 h, 10 µM came out at 84.3%.

For the compound `CCN(CC)C(=O)c1[nH]c2ccccc2c1NS(=O)(=O)c1ccc(C(F)(F)F)cc1[N+](=O)[O-]` [CBK050109], the viability at 28.5 h, 10 µM stood at 103%.

On to `CN1CCC(N2CCN(C(=O)c3ccc(-c4ccc(S(C)(=O)=O)cc4)nc3)CC2)CC1` [CBK158862], for which the viability at 28.5 h, 10 µM is 91.6%.

Turning to `CNC(=O)CN1C(=O)CC2(C1=O)C(=O)N(CCOC)c1ccc(OC)cc12` (stereo not shown) [CBK075144], the viability at 28.5 h, 10 µM was found to be 90.8%.

As for `Cc1ccc(S(=O)(=O)NC2(C(F)(F)F)NC(=O)N(c3ccc(F)c(Cl)c3)C2=O)cc1` (stereo not shown) [CBK267473], the viability at 28.5 h, 10 µM is 97.2%.

For `CC(=O)N(C)c1ncc(Br)cc1C(=O)NCc1ccc2c(c1)CCO2` [CBK076544], the viability at 28.5 h, 10 µM amounted to 93.5%.

`O=C(NCc1cccnc1)C1CCC(Cn2c(=S)[nH]c3ccccc3c2=O)CC1` (stereo not shown) [CBK266678]: the viability at 28.5 h, 10 µM turned out to be 87.9%.

As for `Cc1nnc(SCC(=O)N/N=C/c2cc([N+](=O)[O-])ccc2O)n1-c1ccccc1` [CBK262768], the viability at 28.5 h, 10 µM turned out to be 89.5%.

`O=C(Cn1c(=O)oc2ccccc21)Nc1cccc(C(=O)O)c1` [CBK267641]: the viability at 28.5 h, 10 µM turned out to be 97.4%.

With `CN1C(=O)COc2ccccc2C/C=C/C[C@H]2CNCC[C@H]21` [CBK292076], the viability at 28.5 h, 10 µM was determined as 107%.

On to `Cc1ccc2ncnc(NC(CC(C)C)C(=O)O)c2c1` (stereo not shown) [CBK275388], for which the viability at 28.5 h, 10 µM worked out at 109%.

In the case of `COc1cccc2c1OC1(CCN(C(=O)c3cccnc3)CC1)OC2` [CBK061070], the viability at 28.5 h, 10 µM (bulk resorufin, single well) is 95.7%.

As to `CC(C)(C)OC(=O)NC1CCc2ccccc2N(Cc2ccccc2)C1=O` (stereo not shown) [CBK013366], the viability at 28.5 h, 10 µM came to 97.1%.

Regarding `NC(=O)c1cccc(-c2cnc(N)c(NCc3ccco3)n2)c1` [CBK063660], the viability at 28.5 h, 10 µM is 116%.

For the compound `COc1cc([N+](=O)[O-])ccc1NC(=S)Nc1cccc(S(=O)(=O)N2CCOCC2)c1` [CBK267042], the viability at 28.5 h, 10 µM was found to be 96.9%.

Take `CCOC(=O)c1ccc(N2C(=O)CC(N3CCN(c4cccc(OC)c4)CC3)C2=O)cc1` (stereo not shown) [CBK265396]: the viability at 28.5 h, 10 µM was determined as 101%.

Regarding `CCOc1ccc(N2C(=O)NC(=O)/C(=C\NC(C)(CO)CO)C2=O)cc1` [CBK261437], the viability at 28.5 h, 10 µM (bulk resorufin, single well) was 99.5%.

In the case of `CC(C)(CNC(=O)Cn1cc(C(=O)NC2CCCCC2)ccc1=O)c1cccc(F)c1` [CBK286110], the viability at 28.5 h, 10 µM came out at 88.4%.

In the case of `COCCNC(=O)NCCCn1c(-c2ccncc2)nc2cccnc21` [CBK288581], the viability at 28.5 h, 10 µM was determined as 98.6%.

On to `CC(C)(C)c1cc(CCC(=O)NNC(=O)c2ccccc2Cl)cc(C(C)(C)C)c1O` [CBK268391], for which the viability at 28.5 h, 10 µM was found to be 109%.

With `Cc1ccc(-c2ccc(CCC(=O)O)n2CC2CCCO2)cc1` (stereo not shown) [CBK268636], the viability at 28.5 h, 10 µM was determined as 101%.

For `CCCC/C=C/c1cn2ccnc2c(Nc2cccc(OCC(=O)N(C)C)c2)n1` [CBK066185], the viability at 28.5 h, 10 µM was found to be 108%.

As for `Cc1ccc(S(=O)(=O)Nc2nnc(SCC(=O)Nc3ccc4c(c3)OCO4)s2)cc1` [CBK026675], the viability at 28.5 h, 10 µM was determined as 100%.

Turning to `CCOc1ccc(CNCc2ccc(C(=O)O)cc2)cc1OC` [CBK269590C], the viability at 28.5 h, 10 µM came out at 87.3%.

As for `CCN(C(=O)c1cc(C)nc2ccccc12)C1CCN(C)CC1` [CBK281920], the viability at 28.5 h, 10 µM was determined as 106%.

Regarding `CC1CCc2nc3ccccc3c(C(=O)N(C)Cc3cnn(C)c3)c2C1` (stereo not shown) [CBK305749], the viability at 28.5 h, 10 µM stood at 96.9%.

Consider `C=CCn1c(SCC(=O)Nc2ccc(C(=O)OC)cc2)nnc1-c1ccc(Br)cc1` [CBK101797], for which the viability at 28.5 h, 10 µM turned out to be 92.8%.

Turning to `OC1(c2cccnc2F)CCN(Cc2ccccc2F)CC1` [CBK284372], the viability at 28.5 h, 10 µM came to 91%.

As for `C#CCN1C(=O)C2(OCCO2)c2cccc(C)c21` [CBK019069], the viability at 28.5 h, 10 µM worked out at 95.1%.

Take `CN(C)CCCNC(=O)c1cc2cc(Cl)cc(Cl)c2oc1=O` [CBK269132C]: the viability at 28.5 h, 10 µM is 90.2%.

`Cc1ccc(C(=O)NCCC(=O)Nc2ccccc2C)cc1` [CBK268569]: the viability at 28.5 h, 10 µM turned out to be 103%.

In the case of `O=C(c1ccno1)N1Cc2ccccc2C1` [CBK200327], the viability at 28.5 h, 10 µM was 97%.

Regarding `O=C(c1ccc(-c2cnc3[nH]c(=O)n(Cc4ccccn4)c3n2)cc1)N1CCOCC1` [CBK064413], the viability at 28.5 h, 10 µM came out at 110%.

On to `O=C(Cn1ncc2cccn2c1=O)OC1CCCCC1` [CBK283667], for which the viability at 28.5 h, 10 µM is 91.8%.

Turning to `CCCCNc1nccnc1-c1ccccc1` [CBK088477], the viability at 28.5 h, 10 µM stood at 90.1%.

As for `CC(=O)Cc1nc2ccccc2nc1O` [CBK089805], the viability at 28.5 h, 10 µM came out at 92.2%.

Consider `Cc1cccn2c(CN3CCC(O)CC3)c(C(=O)N3CCOCC3)nc12` [CBK306546], for which the viability at 28.5 h, 10 µM came to 104%.

`COc1cc(NC(=O)N[C@@H]2CN(C)C[C@H]2c2ccc(OC)c(OC)c2)cc(OC)c1` [CBK081112]: the viability at 28.5 h, 10 µM worked out at 93%.

On to `N#Cc1cccc(Nc2cncc(-c3cccc(N)c3)n2)c1` [CBK065319], for which the viability at 28.5 h, 10 µM was determined as 89.1%.

As to `Cc1cccc(NC(=O)Cn2cc(C(=O)COc3ccccc3)c3ccccc32)c1` [CBK268654], the viability at 28.5 h, 10 µM came out at 104%.

For `COc1ccc(N2CCN(c3cc(-c4cccc5ccccc45)ncn3)CC2)cc1OC` [CBK091022], the viability at 28.5 h, 10 µM came to 43.4%.

For `CSCCC(=O)Nc1cccc2[nH]ccc12` [CBK159655], the viability at 28.5 h, 10 µM came out at 105%.

Consider `NS(=O)(=O)c1ccc(CCNC=C2C(=O)c3ccccc3C2=O)cc1` [CBK262997], for which the viability at 28.5 h, 10 µM worked out at 99%.

For the compound `CC(O)CN1CCN(c2nc(-c3ccncc3)nc3c2CCC3)CC1` (stereo not shown) [CBK304971], the viability at 28.5 h, 10 µM is 90.3%.

On to `O=C(CCc1ccccc1)N1CCCC1c1n[nH]cc1-c1ccncc1` (stereo not shown) [CBK283436], for which the viability at 28.5 h, 10 µM was 91.4%.

`CN1CCc2c(sc3nc(SCC(=O)c4ccccc4)n(-c4ccccc4)c(=O)c23)C1` [CBK262586]: the viability at 28.5 h, 10 µM was 85.8%.

Consider `CCn1cc(CN2C3CCC2CC(O)(c2ccc(F)cc2)C3)cn1` (stereo not shown) [CBK282741], for which the viability at 28.5 h, 10 µM worked out at 77.3%.

Turning to `Cn1cccc1C(=O)N1CCC(Cc2ccccc2)CC1` [CBK200182], the viability at 28.5 h, 10 µM turned out to be 102%.

As for `CC(=O)c1ccc(-c2cnc3[nH]c(=O)n(C4CCCCC4)c3n2)s1` [CBK064382], the viability at 28.5 h, 10 µM worked out at 103%.

As for `CCN(CC)CCSc1nc2sc3c(c2c(=O)n1-c1ccc(OC)cc1)CCCC3` [CBK263308], the viability at 28.5 h, 10 µM is 89.3%.

For the compound `Cc1nn(C)c(C)c1OCC(=O)Nc1cc(C(C)(C)C)sc1C#N` [CBK305383], the viability at 28.5 h, 10 µM came out at 101%.

Regarding `Cc1ccc(N(C(C)C(=O)Nc2ccccc2-c2ccccc2)S(C)(=O)=O)cc1` (stereo not shown) [CBK267889], the viability at 28.5 h, 10 µM came to 105%.

With `CC(C)(C)c1ccc(-c2nc(Nc3cccc(C(=O)O)c3)c3ccccc3n2)cc1` [CBK265229C], the viability at 28.5 h, 10 µM came to 96.6%.

`c1csc(-c2cc3cccnc3n2CCN2CCOCC2)c1` [CBK282718]: the viability at 28.5 h, 10 µM is 80.5%.

Turning to `Cc1ccc(-c2csc(NC(=O)CN3C(=O)CCC3=O)n2)c(C)c1` [CBK287348], the viability at 28.5 h, 10 µM was 86.7%.

Regarding `O=C(CN1CCC2(CC1)CN(C(=O)CO)c1ccccc12)c1ccsc1` [CBK144605T], the viability at 28.5 h, 10 µM worked out at 86.8%.

Consider `O=C(O)C1C2C=CC(O2)C1C(=O)NCCCc1ccccc1` (stereo not shown) [CBK286982], for which the viability at 28.5 h, 10 µM is 93.3%.

For `CCNc1nnc(SCCC(=O)N2CCN(c3ccc(F)cc3)CC2)s1` [CBK305058], the viability at 28.5 h, 10 µM amounted to 100%.

For `CN(CC(=O)N1CCOCC1)S(=O)(=O)c1ccc2ccccc2c1` [CBK266946], the viability at 28.5 h, 10 µM stood at 98.5%.

Take `COc1ccc(-c2noc(CSc3nnc(-c4cccs4)n3-c3ccccc3)n2)cc1` [CBK268390]: the viability at 28.5 h, 10 µM was found to be 107%.

For the compound `Cc1ncsc1CCN(C)C(=O)Cn1nc(C)c2ccccc2c1=O` [CBK306893], the viability at 28.5 h, 10 µM was determined as 86.3%.

As for `CC(C)(O)C(=O)NCc1nc2c(s1)CC(c1ccccc1)CC2` (stereo not shown) [CBK304165], the viability at 28.5 h, 10 µM turned out to be 77.3%.

Take `OCCNc1nc(N2CCN(Cc3ccccc3)CC2)nc2ccccc12` [CBK266667C]: the viability at 28.5 h, 10 µM was 92.5%.

As to `COc1ccc(/C=C2\S/C(=N/N=C/c3ccc(OC)cc3)N(c3ccc(O)cc3)C2=O)cc1` [CBK262780], the viability at 28.5 h, 10 µM was 87.7%.

For the compound `C/C(=N\NC(=N)SC1CC(=O)N(c2ccc(C(=O)O)cc2)C1=O)c1cccs1` (stereo not shown) [CBK262471], the viability at 28.5 h, 10 µM was 103%.
